# Results from the METLIN SMRT retention time set (Domingo-Almenara et al. 2019).
# Experiment: gradient 5% acetonitrile 3 min, to 50% in 2 min, to 85% in 15 min, held 3 min, 100 µL/min
# Settings: column: Zorbax Extend-C18 2.1 x 50 mm; eluents: water / acetonitrile, 0.1% formic acid
# Outline: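 Retention times come from adduct peaks that were picked computationally and then checked by hand. The standards, pure and pooled in mixtures of ~100 molecules, were run on a Zorbax Extend-C18 column (2.1 × 50 mm, 1.8 μm) at 100 μL/min with water and acetonitrile, each with 0.1% formic acid. Detection was by quadrupole time-of-flight mass spectrometry in positive and negative ionization mode, with a dead volume of 40 μL and a dwell volume of 900 μL.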
row,Compound,RP-LC retention time
1,O=C(NC1CCCCC1N1C(=O)CSC1=O)c1ccc(=O)[nH]c1 (centres undefined),583 s
2,COC(=O)c1sccc1NC(=O)N1CCc2c([nH]c3ccccc23)C1c1ccc(OC)cc1 (centres undefined),1230 s
3,CN1C(=O)C2CCCCN2c2ccc(C(=O)NCCCN(C)C3CCCCC3)cc21 (centres undefined),655 s
4,O=C(c1ccco1)N1CCN(c2nc(N3CCOCC3)c3n[nH]nc3n2)CC1,598 s
5,CCCN1CCN(CCCNC(=O)C2=Cc3cc(Br)ccc3OC2)CC1,610 s
6,CCCN1C(=O)c2ccccc2C(C(=O)NC2CCCCC2)C1c1cc(OC)c(OC)c(OC)c1 (centres undefined),838 s
7,C#CCOCC1CCN(C(=O)CSC2CCCC2)CC1,852 s
8,Cc1ccc(-c2nc(C(=O)N(C)C)c3n2CCCCC3)cc1,640 s
9,CCOc1ccc(NC(=O)N2CCC(n3c(-c4ccoc4)nc4cccnc43)C2)cc1 (centres undefined),735 s
10,Cc1ccc(NS(=O)(=O)c2c(-c3nc(C4CCC4)no3)c(C)n(C)c2C)cc1,989 s
11,Clc1cncc(N2CCNCC2)n1,614 s
12,COc1ccc(NC(=O)c2cnc(N3CCN(CC(=O)N4CCCC4)CC3)nc2N)cc1,586 s
13,COc1cc(NC(=O)CN2CC(C)Sc3ccccc32)cc(OC)c1 (centres undefined),971 s
14,Cc1c(Cl)ccc2c(=O)c3c([nH]c12)CCN(CC(=O)Nc1cc(F)cc(F)c1)C3,664 s
15,COc1ccc(-c2nnc(-c3cc(S(=O)(=O)N4CCC(C)CC4)ccc3Cl)o2)cc1,1160 s
16,CCc1cccc(NC(=O)N2CCc3c(c(COc4ccccc4)nn3C)C2)c1,934 s
17,COc1ccc(C(=O)Nc2ccc3c(c2)Sc2ncccc2C(=O)N3C)cc1,752 s
18,Cc1ncsc1CN1CCC(Cc2ncc(C)n2Cc2ccccc2)C1 (centres undefined),550 s
19,CCn1cc(S(=O)(=O)N2CC(N(C)Cc3cccnc3)C2)cn1,565 s
20,CCn1c(=O)c(C)nc2cc(-c3noc(-c4cc(OC)c(OC)c(OC)c4)n3)ccc21,919 s
21,CCc1ccc(-c2csc(Nc3ccc(Br)cn3)n2)cc1,1330 s
22,CC(C)(C)NC(=O)N1CCC(CNC(=O)C(=O)NCCC2=CCCCC2)CC1,818 s
23,Cc1nn(CC(=O)NCCCN(C)C2CCCCC2)c(=O)c2nn(-c3ccccc3)c(C)c12,634 s

row,Compound,RP-LC retention time
1,COc1ccccc1-c1nnc(-c2ccc(Cl)c(S(=O)(=O)N3CCCCC3)c2)o1,1100 s
2,Cc1sc2ccn(Cc3ccc(F)cc3)c(=O)c2c1C(=O)NC1CCCC1,919 s
3,Cc1cc(C)n(-c2ccc(C(=O)N3CCN(c4ccc(F)c(Cl)c4)CC3)nn2)n1,969 s
4,O=C(O)c1ccc(NC(=O)N2C[C@@H]3C[C@@H](C2)c2cccc(=O)n2C3)cc1,592 s
5,COc1cc(OC)cc(C(=O)Nc2nc(-c3ccc4c(c3)NC(=O)C(C)O4)c(C)s2)c1 (centres undefined),962 s
6,CC(=O)N1CCCC1c1nc2ccccc2n1CC(=O)N1CCCC1 (centres undefined),574 s
7,CCn1cc(CCN2CCC(C(=O)N3CCCCC3)CC2)c2cccnc21,587 s
8,CC(C)C(=O)OC[C@H]1O[C@@H](n2ccc(N)nc2=O)[C@](C)(F)[C@@H]1OC(=O)C(C)C,799 s
9,Cc1ccc(NC(=O)c2cc(C(C)C)n3nccc3n2)c(F)c1,1270 s
10,COc1ccc(Cl)cc1S(=O)(=O)NCc1c(-c2ccccc2)nc2sc(C)nn12,912 s
11,O=C(Cc1cc(-c2ccco2)on1)Nc1ccc(F)c(F)c1F,838 s
12,Cc1noc(-c2cccc(OC3CN(S(=O)(=O)c4c(C)noc4C)C3)c2)n1,964 s
13,COCCCNC(=O)C1c2ccccc2C(=O)N1CCc1ccc(C)cc1 (centres undefined),787 s
14,COC(=O)c1c(C)c(C(=O)C(C)N(C(=O)c2ccccc2Cl)C2CCCCC2)c(C)n1C (centres undefined),1160 s
15,CCN1C(=O)CCc2cc(NS(=O)(=O)c3ccc(C4CCCCC4)cc3)ccc21,1060 s
16,O=C(Nc1ccccc1C(F)(F)F)N1CCCC1c1nncn1-c1ccccc1 (centres undefined),736 s
17,CCOc1ccc(-c2ccc(=O)n(CCNC(=O)c3sc(C)nc3C)n2)cc1,672 s
18,Cc1noc2ncn(CC(=O)Nc3ccc(F)cc3)c(=O)c12,735 s
19,CN1c2cc(C(=O)NCCCc3ccccc3)ccc2C(=O)N2CCCCC21 (centres undefined),885 s
20,O=C(NC1CCCCC1)[C@@H]1C[C@@H](O)CN1C1CCN(C(=O)c2ccc(Cn3ccnc3)o2)CC1,551 s
21,CCn1c(=O)n(Cc2ccccc2Cl)c(=O)c2cnc(-c3ccc(OC)cc3)nc21,1010 s
22,CCCN(CC1CCOC1)C(=O)Nc1ccc(C)c(F)c1 (centres undefined),857 s
23,CCCN1C(=O)c2c(C(=O)Nc3ccccc3Cl)ncn2CC1(C)C(=O)NC1CCCC1 (centres undefined),822 s

row,Compound,RP-LC retention time
1,COc1ccc(CN2CCc3nc(N4CCN(c5ccccn5)CC4)ncc3C2)c(OC)c1OC,555 s
2,CC1=NS(=O)(=O)N(C)C=C1C(=O)OCc1cc(F)ccc1F,935 s
3,O=C(COc1ccccc1)N1CCCCC1c1nncn1CC1CC1 (centres undefined),731 s
4,Cc1onc(-c2ccccn2)c1C(=O)NCCCN1CCN(C2CCCCC2)CC1,582 s
5,O=C(c1ccoc1)N1CCC(Cc2noc(C3CC3)n2)C1 (centres undefined),695 s
6,Cc1noc(-c2cccc(OC3CN(C(=O)NC4CCCC4)C3)c2)n1,850 s
7,COCc1cnc2c(c1SCc1ccc(C)cc1)c(=O)n(C)c(=O)n2C,1060 s
8,CC(C(=O)NCc1ccco1)C1CCOCC1 (centres undefined),644 s
9,Cc1cc(CN2CCC(CNC(=O)Cc3ccccc3Cl)CC2)c(C)o1,583 s
10,CCOC(=O)c1ccccc1NC(=O)Cn1c(=O)n(CC)c(=O)c2c1cc(C)n2C,978 s
11,Cc1cc(-c2nn3c(COc4ccccc4)nnc3s2)no1,855 s
12,Cc1c(F)cccc1NC(=O)N1C[C@@H](F)C[C@H]1C(=O)N1CCc2ccccc2C1,799 s
13,O=C(CSc1nc2ncccc2[nH]1)NC1CCCC1,585 s
14,O=C(Nc1ccc(Cl)cc1F)C1CCCN(C(=O)c2cc(-c3ccccn3)n[nH]2)C1 (centres undefined),740 s
15,Cc1ccc(NC(=O)C2CCCN(S(=O)(=O)c3cn(C(C)C)cn3)C2)cc1Cl (centres undefined),879 s
16,Fc1ccc(-c2noc(Cc3nc(-c4cccc(Cl)c4)cs3)n2)cc1,1350 s
17,Cn1cc(-c2cc3n(n2)CCC(=O)N3CC(=O)NCc2ccco2)c2ccccc21,756 s
18,COc1ccc(-c2noc(-c3nn(-c4ccc(C)cc4)ccc3=O)n2)cc1,919 s
19,Cc1cc(O)c(C(C)C)cc1NC(=O)Nc1cccc2ccccc12,1190 s
20,COCCCNC(=O)N1CCCC(C)(C(=O)NCc2ccccc2C)C1 (centres undefined),720 s
21,COC(=O)c1ncn2c1C(=O)N(c1ccc(F)cc1C)C(C)(C(=O)NCc1ccccc1)C2 (centres undefined),708 s
22,O=C(C1CC1)N1CCc2sc(S(=O)(=O)N3CCN(c4ccccc4)CC3)cc2C1,987 s
23,CC(C)N1CCC2(CC1)N=C(c1ccc3c(c1)OCO3)CC(c1ccccc1O)N2 (centres undefined),593 s

row,Compound,RP-LC retention time
1,COc1ccccc1NC(=O)NC(C)(C)CC(C)(C)C,1010 s
2,CS(=O)(=O)N1CCN(C(=O)CCCn2nc(-c3ccc(F)cc3)ccc2=O)CC1,652 s
3,Cc1nn(-c2ccccc2)c(C)c1S(=O)(=O)N1CCC(C(=O)Nc2ccc(C(C)C)cc2)CC1,1100 s
4,COc1ccc(C(=O)Nc2ccc3nc(N4CC(C)CC(C)C4)cc(C(=O)O)c3c2)cc1 (centres undefined),680 s
5,CCN1C(=O)c2cccnc2Sc2cc(CNC(=O)c3ccc(F)cc3)ccc21,765 s
6,COc1ccc(OC)c(Nc2c(-c3ccc4c(c3)OCO4)nc3cnccn23)c1,829 s
7,Cc1ccc(Nc2nc(N)nc(CN3CCN(c4ccccn4)CC3)n2)cc1,590 s
8,COc1ccc(-c2nnc(-c3ccc(C)c(S(=O)(=O)N4CCCCCC4)c3)o2)cc1,1150 s
9,CCOC(=O)c1c(S(=O)(=O)N2CCC(C(=O)Nc3ccc(C)c(F)c3)CC2)c(C)n(CC)c1C,984 s
10,Cc1nc(OCC(=O)Nc2ccc(Br)cc2)c2ccccc2n1,794 s
11,CCOC(=O)c1nc(N(CCC(=O)OC)c2ccccc2)c2ccccc2n1,919 s
12,CCOc1ccc(NC(=O)N2CCC3(CC2)NC(=O)c2ccccc2N3C)cc1,781 s
13,CCn1cc(C(=O)NCc2ccccc2F)c(S(=O)(=O)N2CCSCC2)n1,901 s
14,CCOc1ccc(C(=O)Nc2ccc(-c3cn4ccc(C)nc4n3)cc2)cc1OCC,684 s
15,CCc1cc(-c2csc(S(=O)(=O)N3CCN(Cc4ccc5c(c4)OCO5)CC3)c2)on1,753 s
16,CCN1C(=O)C(C)(C(=O)NCc2cccc(Cl)c2)Oc2cccnc21 (centres undefined),903 s
17,COc1cccc(-c2noc(Cc3nnc(-c4cc(F)cc(F)c4)o3)n2)c1OC,968 s
18,COc1ccc(NC(=O)c2sc(N3CCCC3=O)nc2C)cc1Cl,809 s
19,CCC1=C[C@@H]2CN3CCc4c([nH]c5ccccc45)[C@@](C(=O)OC)(C2)[C@@H]13,728 s
20,C=CCN1CCN(c2nc3cc(C(=O)OC)ccc3c(=O)n2-c2cccc(Cl)c2)CC1,681 s
